“And” between values parts separate entries of the source, which are not always exact repeats. Identical values can stand only once.
System: 695427-040-R-J1-PDC complex spheroid viability
Assay: Anticancer human tumor 695427-040-R-J1-PDC patient-derived colon adenocarcinoma cell line growth inhibition [RAS]
Conditions: for viability, T/C: stronger effect = lower value; active = viability on the fitted dose curve at most 10% of control; inactive = the rest
Procedure, shortened: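 Agents were tested in combination matrices in half-log decrements from a top concentration at or near clinical Cmax (10 microM if undetermined). Targets were multi-cell spheroids of tumour lines plus HUVEC and MSC stromal cells.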

[1] = curve of first compound, second compound 0.00316 µM
[2] = curve of first compound, second compound 0.01 µM
[3] = curve of first compound, second compound 0.0316 µM
[4] = curve of first compound, second compound 0.1 µM
[5] = curve of first compound, second compound 0.316 µM
[6] = curve of first compound, second compound 1 µM
[7] = second compound 0.00316 µM, first compound 0.0316 µM
[8] = second compound 0.00316 µM, first compound 0.1 µM
[9] = second compound 0.00316 µM, first compound 0.316 µM
[10] = second compound 0.00316 µM, first compound 1 µM
[11] = second compound 0.00316 µM, first compound 3.16 µM
[12] = second compound 0.00316 µM, first compound 10 µM
[13] = second compound 0.01 µM, first compound 0.0316 µM
[14] = second compound 0.01 µM, first compound 0.1 µM
[15] = second compound 0.01 µM, first compound 0.316 µM
[16] = second compound 0.01 µM, first compound 1 µM
[17] = second compound 0.01 µM, first compound 3.16 µM
[18] = second compound 0.01 µM, first compound 10 µM
[19] = second compound 0.0316 µM, first compound 0.0316 µM
[20] = second compound 0.0316 µM, first compound 0.1 µM
[21] = second compound 0.0316 µM, first compound 0.316 µM
[22] = second compound 0.0316 µM, first compound 1 µM
[23] = second compound 0.0316 µM, first compound 3.16 µM
[24] = second compound 0.0316 µM, first compound 10 µM
[25] = second compound 0.1 µM, first compound 0.0316 µM
[26] = second compound 0.1 µM, first compound 0.1 µM
[27] = second compound 0.1 µM, first compound 0.316 µM
[28] = second compound 0.1 µM, first compound 1 µM
[29] = second compound 0.1 µM, first compound 3.16 µM
[30] = second compound 0.1 µM, first compound 10 µM
[31] = second compound 0.316 µM, first compound 0.0316 µM
[32] = second compound 0.316 µM, first compound 0.1 µM
[33] = second compound 0.316 µM, first compound 0.316 µM
[34] = second compound 0.316 µM, first compound 1 µM
[35] = second compound 0.316 µM, first compound 3.16 µM
[36] = second compound 0.316 µM, first compound 10 µM
[37] = second compound 1 µM, first compound 0.0316 µM
[38] = second compound 1 µM, first compound 0.1 µM
[39] = second compound 1 µM, first compound 0.316 µM
[40] = second compound 1 µM, first compound 1 µM
[41] = second compound 1 µM, first compound 3.16 µM
[42] = second compound 1 µM, first compound 10 µM
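Note: viability read after seven days of drug exposure.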
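Throughout, for viability, T/C: 100% = DMSO vehicle control viability.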

CCN1CCN(Cc2ccc(Nc3ncc(F)c(-c4cc(F)c5nc(C)n(C(C)C)c5c4)n3)nc2)CC1 + CCn1c(-c2cc(N3CCN(C)CC3)cnc2C(C)OC)c2c3cc(ccc31)-c1csc(n1)CC(NC(=O)C1CC1C)C(=O)N1CCCC(N1)C(=O)OCC(C)(C)C2
< 3.16 nM: IC50 (curve of first compound, second compound 0.0949 µM) | IC50 (curve of first compound, second compound 0.3 µM)
inactive: viability, T/C (second compound 0.000949 µM, first compound 0.00316 µM) 94.2% | viability, T/C (second compound 0.000949 µM, first compound 0.01 µM) 87.4% | viability, T/C (second compound 0.000949 µM, first compound 0.0316 µM) 95.4% | viability, T/C (second compound 0.000949 µM, first compound 0.1 µM) 94.4% | viability, T/C (second compound 0.000949 µM, first compound 0.316 µM) 92.8% | viability, T/C (second compound 0.000949 µM, first compound 1 µM) 59.9% | viability, T/C (second compound 0.003 µM, first compound 0.00316 µM) 97.9% | viability, T/C (second compound 0.003 µM, first compound 0.01 µM) 105% | viability, T/C (second compound 0.003 µM, first compound 0.0316 µM) 95.7% | viability, T/C (second compound 0.003 µM, first compound 0.1 µM) 85.2% | viability, T/C (second compound 0.003 µM, first compound 0.316 µM) 83.3% | viability, T/C (second compound 0.003 µM, first compound 1 µM) 59.2% | viability, T/C (second compound 0.00949 µM, first compound 0.00316 µM) 105% | viability, T/C (second compound 0.00949 µM, first compound 0.01 µM) 74.5% | viability, T/C (second compound 0.00949 µM, first compound 0.0316 µM) 84.2% | viability, T/C (second compound 0.00949 µM, first compound 0.1 µM) 67.2% | viability, T/C (second compound 0.00949 µM, first compound 0.316 µM) 67.8% | viability, T/C (second compound 0.00949 µM, first compound 1 µM) 49.6% | viability, T/C (second compound 0.03 µM, first compound 0.00316 µM) 65% | viability, T/C (second compound 0.03 µM, first compound 0.01 µM) 62.9% | viability, T/C (second compound 0.03 µM, first compound 0.0316 µM) 45.4% | viability, T/C (second compound 0.03 µM, first compound 0.1 µM) 53.3% | viability, T/C (second compound 0.03 µM, first compound 0.316 µM) 47.6% | viability, T/C (second compound 0.03 µM, first compound 1 µM) 39.7% | viability, T/C (second compound 0.0949 µM, first compound 0.00316 µM) 51.9% | viability, T/C (second compound 0.0949 µM, first compound 0.01 µM) 41.2% | viability, T/C (second compound 0.0949 µM, first compound 0.0316 µM) 50.4% | viability, T/C (second compound 0.0949 µM, first compound 0.1 µM) 37% | viability, T/C (second compound 0.0949 µM, first compound 0.316 µM) 44.4% | viability, T/C (second compound 0.0949 µM, first compound 1 µM) 36.5% | viability, T/C (second compound 0.3 µM, first compound 0.00316 µM) 37.4% | viability, T/C (second compound 0.3 µM, first compound 0.01 µM) 41.4% | viability, T/C (second compound 0.3 µM, first compound 0.0316 µM) 38.6% | viability, T/C (second compound 0.3 µM, first compound 0.1 µM) 38.8% | viability, T/C (second compound 0.3 µM, first compound 0.316 µM) 42.6% | viability, T/C (second compound 0.3 µM, first compound 1 µM) 41.9%
75.3 nM: IC50 (curve of first compound, second compound 0.03 µM)
> 1000 nM: IC50 (curve of first compound, second compound 0.000949 µM) | IC50 (curve of first compound, second compound 0.003 µM) | IC50 (curve of first compound, second compound 0.00949 µM)

CC(=O)OC12COC1CC(O)C1(C)C(=O)C(O)C3=C(C)C(OC(=O)C(O)C(NC(=O)OC(C)(C)C)c4ccccc4)CC(O)(C(OC(=O)c4ccccc4)C21)C3(C)C (stereo not drawn) + C=CC(=O)N1CCN(c2nc(OCC3CCCN3C)nc3c(F)c(-c4nc(N)cc(C)c4C(F)(F)F)c(Cl)cc23)C(C)C1
inactive: viability, T/C [7] 67.3% | viability, T/C [8] 69% | viability, T/C [9] 74.2% | viability, T/C [10] 78.9% | viability, T/C [11] 91.5% | viability, T/C [12] 98% | viability, T/C [13] 71.8% | viability, T/C [14] 66.8% | viability, T/C [15] 71% | viability, T/C [16] 79.7% | viability, T/C [17] 93% | viability, T/C [18] 89.3% | viability, T/C [19] 71% | viability, T/C [20] 72.8% | viability, T/C [21] 77.2% | viability, T/C [22] 78% | viability, T/C [23] 83.7% | viability, T/C [24] 89.5% | viability, T/C [25] 70.6% | viability, T/C [26] 71.3% | viability, T/C [27] 74% | viability, T/C [28] 76.2% | viability, T/C [29] 93.6% | viability, T/C [30] 96.9% | viability, T/C [31] 75.2% | viability, T/C [32] 73.6% | viability, T/C [33] 83.8% | viability, T/C [34] 75% | viability, T/C [35] 93.1% | viability, T/C [36] 95.7% | viability, T/C [37] 76.4% | viability, T/C [38] 68.5% | viability, T/C [39] 77.3% | viability, T/C [40] 83.4% | viability, T/C [41] 88.7% | viability, T/C [42] 91.8%
> 10000 nM: IC50 [1] | IC50 [2] | IC50 [3] | IC50 [4] | IC50 [5] | IC50 [6]

CCC(CC)c1cc(NC2CCC(N)C2)n2nccc2n1 (stereo not drawn) + C=CC(=O)N1CCN(c2nc(OCC3CCCN3C)nc3c(F)c(-c4nc(N)cc(C)c4C(F)(F)F)c(Cl)cc23)C(C)C1
1870 nM: IC50 [4]
1950 nM: IC50 [3] | IC50 [5]
1800 nM: IC50 [6]
inactive: viability, T/C [7] 93.3% | viability, T/C [8] 94.8% | viability, T/C [9] 109% | viability, T/C [10] 106% | viability, T/C [11] 9.52% | viability, T/C [12] 12.3% | viability, T/C [13] 105% | viability, T/C [14] 96.1% | viability, T/C [15] 119% | viability, T/C [16] 116% | viability, T/C [17] 15.3% | viability, T/C [18] 11.1% | viability, T/C [19] 105% | viability, T/C [20] 99.4% | viability, T/C [21] 105% | viability, T/C [22] 101% | viability, T/C [23] 13% | viability, T/C [24] 11.9% | viability, T/C [25] 100% | viability, T/C [26] 98.2% | viability, T/C [27] 116% | viability, T/C [28] 94.4% | viability, T/C [29] 13.1% | viability, T/C [30] 12.1% | viability, T/C [31] 89.4% | viability, T/C [32] 95.8% | viability, T/C [33] 105% | viability, T/C [34] 111% | viability, T/C [35] 12.4% | viability, T/C [36] 14.7% | viability, T/C [37] 89.9% | viability, T/C [38] 97.2% | viability, T/C [39] 105% | viability, T/C [40] 90.9% | viability, T/C [41] 7.42% | viability, T/C [42] 13.8%
1920 nM: IC50 [1]
2070 nM: IC50 [2]

C[C@@H](NC(=O)c1ncnc(N)c1Cl)c1ncc(C(=O)Nc2cc(C(F)(F)F)c(Cl)cn2)s1
inactive: viability, T/C (compound 0.0316 µM) 105% [middle of 4 runs] | viability, T/C (compound 0.1 µM) 108% [middle of 4 runs] | viability, T/C (compound 0.316 µM) 115% and 99.1% and 103% (2×) | viability, T/C (compound 1 µM) 113% [middle of 4 runs] | viability, T/C (compound 3.16 µM) 99.6% [middle of 4 runs] | viability, T/C (compound 10 µM) 73.2% (2×) and 69.3% and 73.6%
> 10000 nM: IC50 (curve of compound)
